# Laboratory results from patent publication US20050163849A1 (priority 2003, published 2005).
# Assay: Intracolonic ligated model, lower G.I. absorption and bioavailability of iron-transport moiety complexes
# Conditions: rat, intracolonic bolus into ligated colon, 10 mg iron/rat
# Protocol: Absorption of the complexes is evaluated from blood samples taken from the animal as a function of time after intubation. A rise in the hematocrit level in the blood is indicative of absorption.
# A segment of proximal colon is isolated and the colon is flushed of fecal materials. […] The colonic contents are flushed out and the colon is returned to the abdomen of the animal.
# At the end of the 4 hour test period, the rats are euthanized with an overdose of pentobarbital. Colonic segments from each rat are excised and opened longitudinally along the anti-mesenteric border. Each segment is observed macroscopically for irritation and any abnormality noted. The excised colons are placed on graph paper and measured to approximate colonic surface area.
substance,measurement,value
ferrous laurate [ferrous-laurate complex],Increased absorption relative to ferrous sulfate (change in hematocrit level),at least two-fold
